Reference: patent US9181258B2, “Substituted 3,4-dihydropyrrolo[1,2-a]pyrazin-1(2H)-ones as protein kinase inhibitors” (NERVIANO MEDICAL SCIENCES S.R.L., priority 2011, dated 2015)
Structures can show the parent of a compound that is named as a salt.

Experiments:
[1] = molecular target: human PIM1 (Homo sapiens (Human), UniProt P11309); experiment: Biochemical assay for inhibitors of PIM1 kinase activity (trans-phosphorylation, Dowex technique); conditions: ATP 200 μM, Aktide 25 μM, enzyme 1 nM; read-out: PIM-1 IC50
Sequence of human PIM1 (P11309 whole entry): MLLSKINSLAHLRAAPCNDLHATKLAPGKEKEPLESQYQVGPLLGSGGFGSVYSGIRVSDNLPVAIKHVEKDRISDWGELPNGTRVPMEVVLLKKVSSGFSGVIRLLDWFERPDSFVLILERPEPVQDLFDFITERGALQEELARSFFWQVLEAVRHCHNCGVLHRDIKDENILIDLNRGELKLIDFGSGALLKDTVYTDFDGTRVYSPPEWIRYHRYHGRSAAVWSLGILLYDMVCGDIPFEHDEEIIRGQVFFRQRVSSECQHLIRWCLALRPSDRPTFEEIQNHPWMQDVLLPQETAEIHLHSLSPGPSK
Protocol: Biochemical Assay for Inhibitors of PIM1 Kinase Activity
The inhibitory activity of putative kinase inhibitors and the potency of selected compounds were determined using a trans-phosphorylation assay.
Specific peptide or protein substrates were trans-phosphorylated by their specific ser-thr or tyr kinase in the presence of ATP traced with ^33P-γ-ATP, and in the presence of their own optimal buffer and cofactors.
At the end of the phosphorylation reaction, more than 98% unlabeled ATP and radioactive ATP were captured by an excess of the ion exchange dowex resin; the resin then settled down to the bottom of the reaction plate by gravity. Supernatant was subsequently withdrawn and transferred into a counting plate, then evaluated by β-counting.
Reagents/Assay Conditions i. Dowex Resin Preparation
500 g of wet resin (SIGMA, custom prepared resin DOWEX 1×8 200-400 mesh, 2.5 Kg) were weighed out and diluted to 2 L in 150 mM sodium formate, pH 3.00.
The resin was allowed to settle down (some hours) and then the supernatant was discarded.
After three washes as above over a couple of days, the resin was allowed to settle and two volumes (wrt the resin volume) of 150 mM sodium formate buffer were added.
The pH was then measured and should have been around 3.00.
The washed resin was stable for more than one week; the stock resin was kept at 4° C. before use.
The buffer for PIM1 assay was composed of HEPES 50 mM, at pH 7.5, with 10 mM MgCl2, 1 mM DTT, 3 μM NaVO3, and 0.2 mg/mL BSA.
Full-length human PIM1 was expressed and purified as described in Bullock A N, et al., J. Biol. Chem. 2005, 280, 41675-82.
1.7 μM PIM1 was incubated 1 h at 28° C. in the presence of 125 μM ATP.
ATP concentration: 200 μM; ^33P-γ-ATP: 6 nM; Enzyme concentration: 1 nM Substrate concentration Aktide (Chemical Abstract Service Registry Number 324029-01-8): 25 μM iv. Robotized Dowex Assay
The test mix consisted of:
1) 3× Enzyme mix (done in Kinase Buffer 3×), 5 μL/well
2) 3× substrate and ATP mix (done in ddH2O), together with ^33P-γ-ATP, 5 μL/well 3) 3× test compounds (diluted into ddH2O—3% DMSO)—5 μL/well See below for compound dilution and assay scheme […]
An automated station (Biomek FX, Beckman) was used for serial dilutions, producing 1:3 dilutions in 100% DMSO, from line A1 to A10, for all the compounds in the column.
Data were analyzed by an internally customized version of the “Assay Explorer” SW package, which provided sigmoidal fitting of the ten-dilution curves for IC50 determination in secondary assay/hit confirmation routines.

[2] = system: BaF3-PIM1 cells; experiment: In vitro cell proliferation assay (CellTiter-Glo), BaF3-PIM1; type: cell-based; conditions: 72 hours
Protocol: (§1) In Vitro Cell Proliferation Assay
(§2) BaF3-PIM1 and MV-4-11 cells were seeded at 125 cells/well and 1250 cells/well respectively in a 384-well white plates in complete medium and treated with compounds dissolved in 0.1% DMSO, 24 h after seeding.
(§3) The cells were incubated at 37° C. and 5% CO2 and after 72 hours the plates were processed using CellTiter-Glo assay (Promega) following the manufacturer's instruction.
(§4) CellTiter-Glo was a homogenous method based on the quantification of the ATP present, an indicator of metabolitically active cells. ATP was quantified using a system based on luciferase and D-luciferin resulting into light generation. The luminescent signal was proportional to the number of cells present in culture.
(§5) Briefly 25 μl/well reagent solution were added to each wells and after 5 minutes shacking microplates were red by Envision (PerkinElmer) luminometer. The luminescent signal was proportional to the number of cells present in culture.
(§6) Inhibitory activity was evaluated comparing treated versus control data using Assay Explorer (MDL) program. IC50 was calculated using sigmoidal interpolation curve.

[3] = system: MV-4-11 cells; experiment: In vitro cell proliferation assay (CellTiter-Glo), MV-4-11; type: cell-based; conditions: Homo sapiens, MV4-11, 72 hours
Protocol: as §1
MV-4-11 (biphenotypic B myelomonocytic leukemia) cell line was obtained from ATCC.
Media for MV-4-11 cell line contained RPMI 1640 or EMEM plus 2 mM Glutamine and 10% Fetal bovine serum.
as §2, §3, §4, §5, §6

[4] = molecular target: human PIM2 (Homo sapiens (Human), UniProt Q9P1W9); experiment: PIM2 kinase inhibition assay: Dowex technique; type: biochemical; conditions: ATP 4 μM, Aktide 5 μM, enzyme 1.5 nM; read-out: PIM-2 IC50
Sequence of human PIM2 (Q9P1W9 whole entry): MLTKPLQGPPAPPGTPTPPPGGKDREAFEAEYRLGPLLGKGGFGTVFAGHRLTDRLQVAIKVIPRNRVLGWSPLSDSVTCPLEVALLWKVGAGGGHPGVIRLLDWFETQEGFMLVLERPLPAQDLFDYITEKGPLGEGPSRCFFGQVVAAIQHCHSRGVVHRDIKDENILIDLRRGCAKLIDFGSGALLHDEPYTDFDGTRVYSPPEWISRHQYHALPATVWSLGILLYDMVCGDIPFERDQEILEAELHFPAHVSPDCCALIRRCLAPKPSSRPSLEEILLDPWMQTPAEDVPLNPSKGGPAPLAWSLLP
Protocol: Method for PIM2 Kinase Inhibition Assay: Dowex Technique
The buffer for PIM2 assay was composed of HEPES 50 mM, at pH 7.5, with 1 mM MgCl2, 1 mM DTT, 3 μM Na3VO4, and 0.2 mg/mL BSA.
Full-length human PIM2 was expressed and purified as described in Fedorov O, et al., PNAS 2007 104, 51, 20523-28. ii. Assay Conditions (Final Concentrations)
Enzyme concentration=1.5 nM; ATP=4 μM; ^33P-γ-ATP=1 nM
Aktide substrate (Chemical Abstract Service Registry Number 324029-01-8)=5 μM iii. Robotized Dowex Assay
See above: same procedure as described for PIM1.

SMILES	IC50 [1]	IC50 [2]	IC50 [3]	IC50 [4]
NCCC1CNC(=O)c2cc(-c3cccc(OC(F)(F)F)c3)c(-c3ccccc3)n21 (centres unmarked) [Compound 28, 4-(2-aminoethyl)-6-phenyl-7-[3-(trifluoromethoxy)phenyl]-3,4-dihydropyrrolo[1,2-a]pyrazin-1(2H)-one hydrochloride]	7 nM	275 nM	1740 nM	55 nM
NCCC1CNC(=O)c2cc(-c3cccc(OC(F)(F)F)c3)c(-c3ccsc3)n21 (centres unmarked) [Compound 29, 4-(2-aminoethyl)-6-(thiophen-3-yl)-7-[3-(trifluoromethoxy)phenyl]-3,4-dihydropyrrolo[1,2-a]pyrazin-1(2H)-one hydrochloride]	19 nM	315 nM	2620 nM	143 nM
Cc1cccc(-c2c(-c3cccc(OC(F)(F)F)c3)cc3n2C(CCN)CNC3=O)c1 (centres unmarked) [Compound 31, 4-(2-aminoethyl)-6-(3-methylphenyl)-7-[3-(trifluoromethoxy)phenyl]-3,4-dihydropyrrolo[1,2-a]pyrazin-1(2H)-one hydrochloride]	23 nM	326 nM	2590 nM	51 nM
NCCC1CNC(=O)c2cc(-c3cccc(C(F)(F)F)c3)c(-c3ccsc3)n21 (centres unmarked) [Compound 40, 4-(2-aminoethyl)-6-(thiophen-3-yl)-7-[3-(trifluoromethyl)phenyl]-3,4-dihydropyrrolo[1,2-a]pyrazin-1(2H)-one hydrochloride]	43 nM	340 nM	5040 nM	155 nM
Cc1cccc(-c2c(-c3ccnc(Cl)c3)cc3n2C(CCN)CNC3=O)c1 (centres unmarked) [Compound 45, 4-(2-aminoethyl)-7-(2-chloropyridin-4-yl)-6-(3-methylphenyl)-3,4-dihydropyrrolo[1,2-a]pyrazin-1(2H)-one hydrochloride]	41 nM	3960 nM	3170 nM	102 nM
NCCC1CNC(=O)c2cc(-c3cc(Cl)ccc3F)c(-c3ccsc3)n21 (centres unmarked) [Compound 55, 4-(2-aminoethyl)-7-(5-chloro-2-fluorophenyl)-6-(thiophen-3-yl)-3,4-dihydropyrrolo[1,2-a]pyrazin-1(2H)-one hydrochloride]	17 nM	140 nM	3600 nM	77 nM
NCCC1CNC(=O)c2cc(-c3cc(Cl)ccc3F)c(-c3ccccc3)n21 (centres unmarked) [Compound 57, 4-(2-aminoethyl)-7-(5-chloro-2-fluorophenyl)-6-phenyl-3,4-dihydropyrrolo[1,2-a]pyrazin-1(2H)-one hydrochloride]	16 nM	239 nM	2600 nM	32 nM
Cc1cccc(-c2c(-c3cc(Cl)ccc3F)cc3n2C(CCN)CNC3=O)c1 (centres unmarked) [Compound 59, 4-(2-aminoethyl)-7-(5-chloro-2-fluorophenyl)-6-(3-methylphenyl)-3,4-dihydropyrrolo[1,2-a]pyrazin-1(2H)-one hydrochloride]	40 nM	323 nM	4620 nM	114 nM
CN(C)Cc1ccc(-c2c(-c3cccc(OC(F)(F)F)c3)cc3n2C(CCCl)CNC3=O)cc1 (centres unmarked) [Compound 70, 4-(2-chloroethyl)-6-{4-[(dimethylamino)methyl]phenyl}-7-[3-(trifluoromethoxy)phenyl]-3,4-dihydropyrrolo[1,2-a]pyrazin-1(2H)-one trifluoroacetate]	16 nM	418 nM	1500 nM	113 nM
CN1CCN(Cc2ccc(-c3c(-c4cccc(OC(F)(F)F)c4)cc4n3C(CCCl)CNC4=O)cc2)CC1 (centres unmarked) [Compound 71, 4-(2-chloroethyl)-6-{4-[(4-methylpiperazin-1-yl)methyl]phenyl}-7-[3-(trifluoromethoxy)phenyl]-3,4-dihydropyrrolo[1,2-a]pyrazin-1(2H)-one trifluoroacetate]	14 nM	273 nM	3140 nM	44 nM
CN1CCN(Cc2ccc(-c3c(-c4cccc(OC(F)(F)F)c4)cc4n3C(CCO)CNC4=O)cc2)CC1 (centres unmarked) [Compound 82, 4-(2-hydroxyethyl)-6-{4-[(4-methylpiperazin-1-yl)methyl]phenyl}-7-[3-(trifluoromethoxy)phenyl]-3,4-dihydropyrrolo[1,2-a]pyrazin-1(2H)-one trifluoroacetate]	1 nM	486 nM	5960 nM	35 nM
COc1ccc(-c2c(-c3cccc(OC(F)(F)F)c3)cc3n2[C@@H](CCN)CNC3=O)cc1F [Compound 113, (4S)-4-(2-aminoethyl)-6-(3-fluoro-4-methoxyphenyl)-7-[3-(trifluoromethoxy)phenyl]-3,4-dihydropyrrolo[1,2-a]pyrazin-1(2H)-one hydrochloride]	23 nM	53 nM	–	36 nM
NCC[C@H]1CNC(=O)c2cc(-c3cccc(OC(F)(F)F)c3)c(-c3ccc(C4(N)CC4)cc3)n21 [Compound 130, (4S)-6-[4-(1-aminocyclopropyl)phenyl]-4-(2-aminoethyl)-7-[3-(trifluoromethoxy)phenyl]-3,4-dihydropyrrolo[1,2-a]pyrazin-1(2H)-one hydrochloride]	1 nM	150 nM	–	3 nM
CN1CCN(Cc2ccc(-c3c(-c4cccc(OC(F)(F)F)c4)cc4n3[C@@H](CCCN)CNC4=O)cc2)CC1 [Compound 135, (4S)-4-(3-aminopropyl)-6-{4-[(4-methylpiperazin-1-yl)methyl]phenyl}-7-[3-(trifluoromethoxy)phenyl]-3,4-dihydropyrrolo[1,2-a]pyrazin-1(2H)-one dihydrochloride]	1 nM	6450 nM	–	13 nM
CC(C)[C@H]1CNC(=O)c2cc(-c3cccc(OC(F)(F)F)c3)c(-c3ccc(CN)cc3)n21 [Compound 138, (4S)-6-[4-(aminomethyl)phenyl]-4-(propan-2-yl)-7-[3-(trifluoromethoxy)phenyl]-3,4-dihydropyrrolo[1,2-a]pyrazin-1(2H)-one]	12 nM	276 nM	–	173 nM
Cc1cccc(-c2c(-c3cccc(OC(F)(F)F)c3)cc3n2[C@@H](CCNC(=N)N)CNC3=O)c1 [Compound 148, 1-(2-{(4S)-6-(3-methylphenyl)-1-oxo-7-[3-(trifluoromethoxy)phenyl]-1,2,3,4-tetrahydropyrrolo[1,2-a]pyrazin-4-yl}ethyl)guanidine hydrochloride]	8 nM	110 nM	–	12 nM
CS(=O)(=O)c1ccc(-c2c(-c3cccc(OC(F)(F)F)c3)cc3n2[C@@H](CCNC(=N)N)CNC3=O)cc1 [Compound 149, 1-(2-{(4S)-6-[4-(methylsulfonyl)phenyl]-1-oxo-7-[3-(trifluoromethoxy)phenyl]-1,2,3,4-tetrahydropyrrolo[1,2-a]pyrazin-4-yl}ethyl)guanidine hydrochloride]	8 nM	1770 nM	–	19 nM
